From patent US11141413B2, “Method of treating renal cell carcinoma using N-(4-(6,7-dimethoxyquinolin-4-yloxy)phenyl)-N′-(4-fluorophenyl)cyclopropane-1,1-dicarboxamide, (2S)-hydroxybutanedioate” (Exelixis, Inc., priority 2016, dated 2021)

System: bone metastases in advanced RCC patients
Assay: METEOR bone endpoints: bone scan response, skeletal-related events, bone markers
Type: in vivo, human
Conditions: for C-terminal cross-lined telopeptides of type 1 collagen (CTx), median / N-terminal propeptide of type 1 collagen (P1NP), median: patients with bone metastases at baseline; for Bone scan response (BSR) per IRC: patients with bone lesions at baseline by bone scan, BSR = ≥30% decrease in BSLA
From the text: The study design in depicted in FIG. 8.3. Clinical outcome measures included PFS, ORR, overall survival (OS), and safety. Exploratory endpoints included bone scan response (BSR) in patients with bone scan lesions at baseline (Brown Nucl Med Commun 2012 33:384), incidence of skeletal-related events (SRE), and changes in bone turnover markers. The subgroup of patients with bone metastases (N=142) was defined by the presence of bone metastases at baseline by CT or MRI per IRC. Bone scan response (BSR) was evaluated for patients who had bone lesions detected by technetium bone scans at baseline (N=178).
Participants were screened via CT or MRI every 8 weeks for the first 12-months post-randomization, and then every 12 weeks thereafter. Technetium bone scans were performed at screening (all patients), every 16 weeks for the first 12 months post-randomization (only in patients with bone lesions at baseline), and then every 23 weeks thereafter. Skeletal-related events (SREs) were assessed and consisted of pathological fractures, spinal cord compression, surgery to bone, and external radiation therapy to bone. Serum bone marker analyses consisted on N-terminal propeptide of type I collagen (PINP), and the bone resorption marker c-terminal cross-lined telopeptides of type I collagen (CTx), which were collected prior to the first dose at week 1, at week 5, and at week 9.
Bone scan responses per IRC in patients with bone scan lesions were performed using computer-assisted detection of bone scan lesions. An IRC was used to quantitate bone scan tumor burden using computer-assisted detection (CAD) to measure lesions and defined criteria for response. Bone scan lesion area (BSLA), which represents the number of pixels with radiotracer uptake above the threshold for normal bone, was also calculated. BSR was defined as greater than or equal to 30% decrease in BSLA.

[1] = patients with an SRE pre-randomization
[2] = prior history of SREs, Pts with Bone Metastases
[3] = prior history of SREs, Pts without Bone Metastases

| Compound | C-terminal cross-lined telopeptides of type 1 collagen (CTx), median (Baseline) [µg/L] | N-terminal propeptide of type 1 collagen (P1NP), median (Baseline) [µg/L] | Post-Randomization SREs, % (Pts with Bone Metastases) | Post-randomization SRE: External radiation therapy to bone, % (Pts with Bone Metastases) | Post-randomization SRE: Pathologic fractures, % (Pts with Bone Metastases) | Post-randomization SRE: Spinal cord compression, % (Pts with Bone Metastases) | Post-randomization SRE: Surgery to bone, % (Pts with Bone Metastases) | Time to first SRE, median (Pts with Bone Metastases) [months] | Post-Randomization SREs, % (Pts without Bone Metastases) | Post-randomization SRE: External radiation therapy to bone, % (Pts without Bone Metastases) | Post-randomization SRE: Pathologic fractures, % (Pts without Bone Metastases) | Post-randomization SRE: Spinal cord compression, % (Pts without Bone Metastases) | Post-randomization SRE: Surgery to bone, % (Pts without Bone Metastases) | Time to first SRE, median (Pts without Bone Metastases) [months] | C-terminal cross-lined telopeptides of type 1 collagen (CTx), median (Week 5) [µg/L] | N-terminal propeptide of type 1 collagen (P1NP), median (Week 5) [µg/L] | Cases of spinal cord compression [1] | Incidence of post-randomization SREs [1] [%] | Bone scan response (BSR) per IRC [%] | Post-randomization SRE: External radiation therapy to bone, % [2] | also measured |
| --- | --- | --- | --- | --- | --- | --- | --- | --- | --- | --- | --- | --- | --- | --- | --- | --- | --- | --- | --- | --- | --- |
| COc1cc2nccc(Oc3ccc(NC(=O)C4(C(=O)Nc5ccc(F)cc5)CC4)cc3)c2cc1OC [cabozantinib] | 0.40 | 48.5 | (21) % | (9) % | (12) % | (3) % | (8) % | 3.45 | (9) % | (7) % | (3) % | (1) % | (2) % | 3.93 | 0.19 | 38.9 | 0 | 16 | 18 | (9) % | Reductions in bone markers (cabozantinib vs everolimus): greater; Bone scan response (BSR) per IRC (listed as Cabozantinib): 18 (11, 27) %; Post-randomization SRE: Pathologic fractures, % [2]: (14) %; Post-randomization SRE: Surgery to bone, % [2]: (9) %; SREs in patients with a prior history of SREs, % [2]: (23) %; Time to first SRE, median [2]: 3.25 months; Post-randomization SRE: External radiation therapy to bone, % [3]: (8) %; Post-randomization SRE: Pathologic fractures, % [3]: (6) %; Post-randomization SRE: Surgery to bone, % [3]: (4) %; SREs in patients with a prior history of SREs, % [3]: (10) %; Time to first SRE, median [3]: 2.76 months; Cases of spinal cord compression (randomized patients): 4; Patients with at least one skeletal-related event (SRE) (randomized patients): 12% |
| CO[C@H]1C[C@@H]2CC[C@@H](C)[C@@](O)(O2)C(=O)C(=O)N2CCCC[C@H]2C(=O)O[C@H]([C@H](C)C[C@@H]2CC[C@@H](OCCO)[C@H](OC)C2)CC(=O)[C@H](C)/C=C(\C)[C@@H](O)[C@@H](OC)C(=O)[C@H](C)C[C@H](C)/C=C/C=C/C=C/1C [everolimus] | 0.43 | 49.9 | (29) % | (25) % | (5) % | (6) % | (8) % | 2.53 | (10) % | (7) % | (3) % | (2) % | (2) % | 4.27 | 0.43 | 44.1 | 5 | 34 | 10 | (28) % | Bone scan response (BSR) per IRC (listed as Everolimus): 10 (4, 19) %; Post-randomization SRE: Pathologic fractures, % [2]: (5) %; Post-randomization SRE: Spinal cord compression, % [2]: (5) %; Post-randomization SRE: Surgery to bone, % [2]: (7) %; SREs in patients with a prior history of SREs, % [2]: (33) %; Time to first SRE, median [2]: 2.41 months; Post-randomization SRE: External radiation therapy to bone, % [3]: (23) %; Post-randomization SRE: Pathologic fractures, % [3]: (13) %; Post-randomization SRE: Spinal cord compression, % [3]: (6) %; Post-randomization SRE: Surgery to bone, % [3]: (9) %; SREs in patients with a prior history of SREs, % [3]: (36) %; Time to first SRE, median [3]: 4.27 months; Cases of spinal cord compression (randomized patients): 8; Patients with at least one skeletal-related event (SRE) (randomized patients): 14% |
